Test results published in patent US8871267B2, “Protein matrix materials, devices and methods of making and using thereof” (Gel-Del Technologies, Inc., priority 1998, dated 2014).

What was measured:
hepatocytes = test: Biological activity of released hEGF in in-vitro cell culture; assay type: cell-based; settings: subsequent studies using hepatocytes
xanthine oxidase = molecular target: T1, xanthine oxidase (Bos taurus, UniProt P80457); test: Enzyme activity of xanthine oxidase in the device piece (Sigma Enzymatic Assay of Superoxide Dismutase protocol); assay type: biochemical; settings: 0.01 unit solution
T1 construct: purchased Sigma Chemical Company, St. Louis Mo
T1 sequence (P80457 2-1332 limits assumed): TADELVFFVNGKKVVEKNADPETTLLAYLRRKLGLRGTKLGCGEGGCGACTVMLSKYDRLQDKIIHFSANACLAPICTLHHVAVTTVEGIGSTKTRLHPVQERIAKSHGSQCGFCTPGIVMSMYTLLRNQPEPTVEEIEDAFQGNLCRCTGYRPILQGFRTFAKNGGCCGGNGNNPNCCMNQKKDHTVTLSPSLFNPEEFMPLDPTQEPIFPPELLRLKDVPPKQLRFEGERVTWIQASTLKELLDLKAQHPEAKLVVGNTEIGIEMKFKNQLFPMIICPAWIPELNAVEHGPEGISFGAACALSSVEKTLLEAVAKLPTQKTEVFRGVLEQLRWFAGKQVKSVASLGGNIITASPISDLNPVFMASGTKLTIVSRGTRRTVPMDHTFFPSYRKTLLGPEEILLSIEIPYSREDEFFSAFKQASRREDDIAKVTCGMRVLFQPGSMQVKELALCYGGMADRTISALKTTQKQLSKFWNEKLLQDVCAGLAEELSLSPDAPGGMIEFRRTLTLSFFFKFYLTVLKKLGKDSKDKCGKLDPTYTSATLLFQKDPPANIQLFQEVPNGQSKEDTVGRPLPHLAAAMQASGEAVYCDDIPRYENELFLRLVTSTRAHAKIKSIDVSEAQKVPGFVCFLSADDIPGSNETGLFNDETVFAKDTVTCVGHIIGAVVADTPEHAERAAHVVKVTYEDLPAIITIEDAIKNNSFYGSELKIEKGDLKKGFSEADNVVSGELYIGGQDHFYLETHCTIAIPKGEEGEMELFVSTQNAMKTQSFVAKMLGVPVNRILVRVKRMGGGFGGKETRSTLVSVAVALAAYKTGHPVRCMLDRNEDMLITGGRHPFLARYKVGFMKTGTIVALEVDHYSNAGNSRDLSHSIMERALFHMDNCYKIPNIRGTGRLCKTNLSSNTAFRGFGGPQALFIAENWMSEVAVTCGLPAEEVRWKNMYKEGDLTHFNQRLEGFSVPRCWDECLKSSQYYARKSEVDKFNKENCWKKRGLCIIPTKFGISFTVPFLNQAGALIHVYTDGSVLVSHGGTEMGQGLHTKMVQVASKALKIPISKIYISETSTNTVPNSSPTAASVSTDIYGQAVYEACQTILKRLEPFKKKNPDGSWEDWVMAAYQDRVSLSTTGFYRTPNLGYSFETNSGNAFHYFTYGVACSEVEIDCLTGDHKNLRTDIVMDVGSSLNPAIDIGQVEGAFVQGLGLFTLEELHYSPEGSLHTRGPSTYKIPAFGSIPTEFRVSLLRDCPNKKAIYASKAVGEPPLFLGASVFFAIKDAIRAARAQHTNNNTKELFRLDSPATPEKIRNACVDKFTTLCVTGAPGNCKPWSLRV
Experimental: A single cylinder piece, prepared as described above in Example 1, was added to a reaction chamber in a spectrophotometer containing xanthine, cytochrome C and other reactants according to previously described superoxide dismutase protocol (Sigma Quality Control Test Procedure EC 1.15.1.1 “Enzymatic Assay of Superoxide Dismutase”) enzyme activity of the enzyme xanthine oxidase in the piece was calculated at 0.0005 delta absorbance min (absorbance measured at 550 mm where no enzyme activity produces 0.00000 change in absorbance). In comparison to a 0.01 unit solution of xanthine oxidase, which produced 0.0250 delta absorbance/min, the activity of the xanthine oxidase in the piece equaled 1% of the control solution in a time period of only 3 minutes.

rate produced by xanthine oxidase solution (xanthine oxidase) [delta absorbance/min] | Substance | biological activity of released hEGF (hepatocytes)
 | hEGF: recombinant human epidermal growth factor (R&D System) (NSDSECPLSHDGYCLHDGVCMYIEALDKYACNCVVGYIGERCQYRDLKWWELR; not fully specified; Epidermal growth factor; UniProt P01133 971-1023, looked up) | has biological activity
0.0250 | xanthine oxidase | 
